Measurements as given in ChEMBL document CHEMBL5046245, “Identification of Pyruvate Carboxylase as the Cellular Target of Natural Bibenzyls with Potent Anticancer Activity against Hepatocellular Carcinoma via Metabolic Reprogramming” (J Med Chem, 2022).
Active and inactive are the calls of the source. The rule behind the calls is not given here.

Columns and labels:
HCCLM3 [1] = assay: Induction of apoptosis in human HCCLM3 cells assessed as cell rounding at 20 nM incubated for 24 hrs by DAPI staining based phase contrast microscopic analysis; format: functional
HepG2 [2] = assay: Effect on cell cycle arrest in human HepG2 cells assessed as decrease in accumulation of cells at G0/G1 phase incubated for 24 hrs by propidium iodide staining based flow cytometry analysis; format: functional; settings: dose 20-80 nM
HCCLM3 [3] = assay: Cytotoxicity against PC knockout human HCCLM3 cells assessed as reduction in cell viability at 20 to 100 nM measured after 48 hrs by MTT assay; format: functional, cell-based; settings: dose 20-100 nM
HCCLM3 [4] = assay: Induction of glycolysis in human HCCLM3 cells assessed as decrease in level of aspartate at 5 nM; format: functional, cell-based
HepG2 [5] = assay: Induction of apoptosis in human HepG2 cells assessed as cell shrinkage at 100 nM incubated for 24 hrs by DAPI staining based phase contrast microscopic analysis; format: functional
HepG2 [6] = assay: Induction of apoptosis in human HepG2 cells assessed as cell rounding at 100 nM incubated for 24 hrs by DAPI staining based phase contrast microscopic analysis; format: functional
SK-HEP1 [7] = assay: Antimigratory activity in human SK-HEP1 cells overexpressing PC assessed as suppression of cell migration at 0.5 nM measured after 48 hrs by wound healing assay; format: functional, cell-based
HepG2 [8] = assay: Inhibition of pyruvate carboxylase in human HepG2 cells measured at 0.001 to 10 nM for 24 hrs; format: cell-based; settings: dose 0.001-10 nM
SK-HEP1 [9] = assay: Inhibition of mesenchymal transition in human SK-HEP1 cells overexpressing PC assessed as effect on N-cadherin expression; format: functional, cell-based
SK-HEP1 [10] = assay: Anti-invasive activity in human SK-HEP1 cells overexpressing PC assessed as suppression of cell invasion at 0.05 nM measured after 48 hrs by transwell assay; format: functional, cell-based
HepG2 [11] = assay: Induction of apoptosis in human HepG2 cells transfected with PC-flag plasmid assessed as reduction in cell viability at 20 to 100 nM incubated for 48 hrs by MTT assay; format: functional, cell-based; settings: dose 20-100 nM
Homo sapiens = species: Homo sapiens; assay: Binding affinity to recombinant pyruvate carboxylase (unknown origin) assessed as thermal stability at upto 1000 nM by cellular thermal […] assay; settings: dose nM <=1000
[12] = Antitumor activity against human HCCLM3 cells xenografted in NCR-nu/nu mouse assessed wet tumor weight at 50 mg/kg, ip administered alternate days for 21 days and measured 26 days post implantation (Rvb= 1.835 +/- 0.15 g); format: functional; settings: time 21 day
HCCLM3 [13] = assay: Induction of apoptosis in human HCCLM3 cells assessed as cell shrinkage at 20 nM incubated for 24 hrs by DAPI staining based phase contrast microscopic analysis; format: functional
HCCLM3 [14] = assay: Inhibition of epithelial-mesenchymal transition in human HCCLM3 cells assessed as decrease in N-cadherin expression at 0.05 to 1 nM incubated for 24 hrs by Western blot analysis; format: functional, cell-based; settings: dose 0.05-1 nM
SK-HEP1 [15] = assay: Inhibition of mesenchymal transition in human SK-HEP1 cells overexpressing PC assessed as effect on fibronectin expression; format: functional, cell-based
HCCLM3 [16] = assay: Induction of glycolysis in human HCCLM3 cells assessed as decrease in level of oxaloacetate at 5 nM; format: functional, cell-based
HCCLM3 [17] = assay: Induction of glycolysis in human HCCLM3 cells assessed as decrease in level of L-lactate at 5 nM; format: functional, cell-based
[18] = Systemic toxicity in NCR-nu/nu mouse bearing human HCCLM3 tumor assessed as pathological change in spleen at 25 to 50 mg/kg, ip administered alternate days for 21 days and measured 26 days post implantation by H and E staining based analysis; format: organism-based; settings: in vivo, 504 h, dose 25-50 mg/kg, time 21 day
HepG2 [19] = assay: Cytotoxicity against human HepG2 cells assessed as cell viability at 62.5 to 250 nM preincubated for 48 hrs by MTT assay; format: functional, cell-based; settings: dose 62.5-250 nM
HepG2 [20] = assay: Cytotoxicity against PC knockout human HepG2 cells assessed as reduction in cell viability at 20 to 100 nM measured after 48 hrs by MTT assay; format: functional, cell-based; settings: dose 20-100 nM
HCCLM3 [21] = assay: Antimigratory activity in human HCCLM3 cells assessed as inhibition of scratch closure at 0.05 to 1 nM measured after 24 hrs by wound healing assay; format: functional, cell-based; settings: dose 0.05-1 nM
[22] = Systemic toxicity in NCR-nu/nu mouse bearing human HCCLM3 tumor assessed as pathological change in kidney at 25 to 50 mg/kg, ip administered alternate days for 21 days and measured 26 days post implantation by H and E staining based analysis; format: organism-based; settings: in vivo, 504 h, dose 25-50 mg/kg, time 21 day
HCCLM3 [23] = assay: Induction of apoptosis in human HCCLM3 cells assessed as decrease in cell viability at 20 to 40 nM incubated for 48 hrs in presence of 2 mM OAA MTT assay; format: functional, cell-based; settings: dose 20-40 nM
HepG2 [24] = assay: Induction of apoptosis in human HepG2 cells xenografted in NCR-nu/nu mouse assessed as increase in total apoptotic cells in tumor at 50 mg/kg, ip administered alternate days for 21 days and measured 26 days post implantation by TUNEL staining based confocal microscopic analysis; format: functional, organism-based; settings: time 21.0 day
[25] = Antiproliferative activity against human HCCLM3 cells assessed as inhibition of cell growth measured after 48 hrs by MTT assay; format: functional, cell-based; settings: HCCLM3, 48 h
HCCLM3 [26] = assay: Inhibition of epithelial-mesenchymal transition in human HCCLM3 cells assessed as decrease in fibronectin expression level at 0.05 to 1 nM incubated for 24 hrs by Western blot analysis; format: functional, cell-based; settings: dose 0.05-1 nM
HepG2 [27] = assay: Antitumor activity against human HepG2 cells xenografted in NCR-nu/nu mouse assessed wet tumor weight at 50 mg/kg, ip administered alternate days for 21 days and measured 26 days post implantation (Rvb= 0.92 +/- 0.13 g); format: functional; settings: time 21 day
HepG2 [28] = assay: Effect on cell cycle arrest in human HepG2 cells assessed as increase accumulation of cells in G2/M phase at 20 nM measured upto 24 hrs hrs by propidium iodide staining based flow cytometry analysis; format: functional; settings: time hrs <=24, TDE = time-dependent effect
HCCLM3 [29] = assay: Induction of glycolysis in human HCCLM3 cells assessed as decrease in level of succinate at 5 nM; format: functional, cell-based
SK-HEP1 [30] = assay: Antiproliferative activity against human SK-HEP1 cells assessed as inhibition of cell growth measured after 48 hrs by MTT assay; format: functional, cell-based; settings: SK-HEP1, 48 h
HCCLM3 [31] = assay: Reversal of H2O2-induced cell death in human HCCLM3 cells at 10 nM pretreated for 24 hrs followed by H2O2 addition and further incubated for 24 hrs in presence of OAA by MTT assay; format: functional, cell-based; settings: time 48.0 hrs
HCCLM3 [32] = assay: Antimigratory activity against PC knockout human HCCLM3 cells assessed as suppression of cell migration at 0.5 nM measured after 48 hrs by wound healing assay; format: functional, cell-based
HCCLM3 [33] = assay: Induction of glycolysis in human HCCLM3 cells assessed as decrease in level of acetyl-CoA at 5 nM; format: functional, cell-based
[34] = Inhibition of pyruvate carboxylase in human HepG2 cells measured upto 24 hrs by PC assay kit; format: cell-based
[35] = Antitumor activity against human HCCLM3 cells xenografted in NCR-nu/nu mouse assessed wet tumor weight at 25 mg/kg, ip administered alternate days for 21 days and measured 26 days post implantation (Rvb= 1.835 +/- 0.15 g); format: functional; settings: time 21 day
HCCLM3 [36] = assay: Induction of glycolysis in human HCCLM3 cells assessed as decrease in level of fumarate at 5 nM; format: functional, cell-based

Activity (Homo sapiens): Active
IC50 (SK-HEP1 [30]): 757 nM
IC50 [34]: 9.35 nM
SMILES: COc1ccc(CCc2cc(OC)c(OC)c(OC)c2)cc1O
Activity (HCCLM3 [1]): Active
Activity (HepG2 [2]): Dose-Dependent Effect
Activity (HCCLM3 [3]): inactive
Activity (HCCLM3 [4]): Active
Activity (HepG2 [5]): Active
Activity (HepG2 [6]): Active
Activity (SK-HEP1 [7]): Active
inhibition (HepG2 [8]): inactive
inhibition (SK-HEP1 [9]): inactive
Activity (SK-HEP1 [10]): Active
Activity (HepG2 [11]): inactive
Activity [12]: 0.695 g
Activity (HCCLM3 [13]): Active
inhibition (HCCLM3 [14]): Active
inhibition (SK-HEP1 [15]): inactive
Activity (HCCLM3 [16]): Active
Activity (HCCLM3 [17]): Active
Activity [18]: Non-Toxic
Activity (HepG2 [19]): Active
Activity (HepG2 [20]): inactive
Activity (HCCLM3 [21]): Active
Activity [22]: Non-Toxic
Activity (HCCLM3 [23]): inactive
Activity (HepG2 [24]): Active
IC50 [25]: 17.7 nM
inhibition (HCCLM3 [26]): Active
Activity (HepG2 [27]): 0.32 g
Activity (HepG2 [28]): Tde
Activity (HCCLM3 [29]): Active
Activity (HCCLM3 [31]): Active
Activity (HCCLM3 [32]): Active
Activity (HCCLM3 [33]): Active
Activity [35]: 1.1883 g
Activity (HCCLM3 [36]): Active
